We go through eight compounds from PubChem BioAssay (NCI).

Molecules are shown by their SMILES. Several values for one entry are separate records, joined by “and”; a condition that tells them apart may be missing. Equal values may be shown once.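 Protocol summary: plate cells (96-well), add compound at 5 concentrations, incubate 48 h, interpolate endpoints linearly. At the GI50, growth is halved. At the TGI there is no net growth.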

Test systems include NCI-H226 lung; UACC-62 melanoma; HS 578T breast; MALME-3M melanoma; HCT-116 colon; RPMI-8226 leukemia; SK-MEL-5 melanoma; CCRF-CEM leukemia; KM12 colon; RXF 393 renal.
Assay in all cases: NCI tumour cell line growth inhibition, 48 h

For the compound `Cc1c(C(N)=O)sc2c1c(=O)n(Cc1ccccc1)c1nnc(S(=O)(=O)CC(=O)Nc3ccc(Cl)cc3)n21`, the GI50 is 4.83 µM in the assay with NCI-H226 lung; 4.21 µM in the assay on UACC-62 melanoma; 2.67 µM with HS 578T breast; 3.96 µM in the assay with MALME-3M melanoma; 2.1 µM in the assay with HCT-116 colon; 39.1 µM in the assay with RPMI-8226 leukemia. In addition, the GI50 with SK-MEL-5 melanoma was 6.02 µM; in the assay with CCRF-CEM leukemia, 10.9 µM; with KM12 colon it was 4.54 µM; in the assay with RXF 393 renal, 2.41 µM. Besides, the TGI in the assay with NCI-H226 lung was 19.8 µM; with UACC-62 melanoma, 18.7 µM; in the assay with HS 578T breast it was above 100 µM; with MALME-3M melanoma, 17.5 µM; in the assay with HCT-116 colon, 5.22 µM; in the assay with RPMI-8226 leukemia it was above 100 µM. Also, the TGI in the assay with SK-MEL-5 melanoma was 20.7 µM; in the assay with CCRF-CEM leukemia, 43.1 µM; in the assay with KM12 colon it was 16.2 µM; in the assay on RXF 393 renal, 7.13 µM.
Take `O=[N+]([O-])c1cc2c(ccc3occc32)o1`: the GI50 is 4.04 µM in the assay with NCI-H226 lung; 1.45 µM in the assay on UACC-62 melanoma; 4.29 µM in the assay on HS 578T breast; 1.54 µM in the assay on MALME-3M melanoma; 1.34 µM with HCT-116 colon; 4 µM with RPMI-8226 leukemia. In addition, the GI50 with SK-MEL-5 melanoma is 1.17 µM; in the assay with CCRF-CEM leukemia, 1.87 µM; in the assay with KM12 colon it was 2.78 µM; in the assay with RXF 393 renal, 1.49 µM. In addition, the TGI in the assay on NCI-H226 lung was determined as 31.7 µM; with UACC-62 melanoma, 3.41 µM; in the assay with HS 578T breast, 70.2 µM; in the assay with MALME-3M melanoma, 3.11 µM; in the assay on HCT-116 colon it was 5.73 µM; with RPMI-8226 leukemia, 44.3 µM. For the same compound, the TGI worked out at 2.54 µM with SK-MEL-5 melanoma, 7.88 µM with CCRF-CEM leukemia, 7.31 µM with KM12 colon and 3.17 µM in the assay with RXF 393 renal.
Take `NS(=O)(=O)c1ccc(N2N=C(c3cccs3)CC2c2ccccc2O)cc1` (stereo not given): the GI50 with NCI-H226 lung was 3.4 µM; with UACC-62 melanoma, 1.15 µM; in the assay with HS 578T breast, 0.845 µM; in the assay on MALME-3M melanoma it was 4.81 µM; with HCT-116 colon, 1.15 µM; in the assay on RPMI-8226 leukemia, 1.16 µM. In addition, the GI50 in the assay with SK-MEL-5 melanoma was 1.47 µM; in the assay on CCRF-CEM leukemia, 1.4 µM; in the assay with KM12 colon, 0.809 µM; with RXF 393 renal, 0.733 µM. For the same compound, the TGI in the assay with NCI-H226 lung was 17.4 µM; in the assay with UACC-62 melanoma, 5.09 µM; in the assay on HS 578T breast it was 2.7 µM; in the assay with MALME-3M melanoma it was 13.5 µM; in the assay with HCT-116 colon it was 3.96 µM; in the assay with RPMI-8226 leukemia, 5.29 µM. The TGI is 5.68 µM with SK-MEL-5 melanoma, above 33.3 µM in the assay with CCRF-CEM leukemia, 1.94 µM in the assay with KM12 colon and 2.2 µM in the assay with RXF 393 renal.
For the compound `COc1cc2c3cc1Oc1c(OC)c(OC)cc4c1C(Cc1ccc(cc1)Oc1cc(ccc1O)CC3N(C)CC2)N(C)CC4` (stereo not given), the TGI was 40.6 µM and 37.5 µM in the assay on NCI-H226 lung; 28.5 µM and 21.7 µM with UACC-62 melanoma; 31.4 µM in the assay on HS 578T breast; 27 µM and 26 µM in the assay with MALME-3M melanoma; 21 µM and > 100 µM in the assay on HCT-116 colon; 32.1 µM in the assay with RPMI-8226 leukemia. Moreover, the TGI was 18.7 µM and 3.72 µM with SK-MEL-5 melanoma; 58.3 µM and 24.7 µM in the assay with CCRF-CEM leukemia; 24.8 µM and 26.2 µM in the assay on KM12 colon; 5.69 µM and 4.03 µM in the assay with RXF 393 renal. Further, the GI50 is 6.2 µM and 1.81 µM with SK-MEL-5 melanoma; 6.96 µM and 2.78 µM in the assay on CCRF-CEM leukemia.
As for `CN(C)N=Nc1nn(C(=O)Nc2ccc(Cc3ccccc3)cc2)c2ccccc12`, the GI50 in the assay on NCI-H226 lung was above 100 µM; in the assay with UACC-62 melanoma, 0.0385 µM; in the assay with HS 578T breast it was above 100 µM; in the assay with MALME-3M melanoma it was 6.6 µM; in the assay with HCT-116 colon, above 100 µM; in the assay on RPMI-8226 leukemia, 5.06 µM. The GI50 is 0.122 µM in the assay with SK-MEL-5 melanoma, 4.42 µM with CCRF-CEM leukemia, 0.312 µM with KM12 colon and above 28.9 µM in the assay with RXF 393 renal. For the same compound, the TGI was above 100 µM in the assay with NCI-H226 lung; 1.65 µM with UACC-62 melanoma; above 100 µM in the assay on HS 578T breast; above 100 µM with MALME-3M melanoma; above 100 µM in the assay with HCT-116 colon; above 100 µM in the assay with RPMI-8226 leukemia. Besides, the TGI is 1.09 µM with SK-MEL-5 melanoma, above 100 µM in the assay on CCRF-CEM leukemia, above 100 µM with KM12 colon and above 100 µM in the assay on RXF 393 renal.
Consider `O=C(Cn1c2ccccc2c2ccncc21)N/N=C\c1ccc2ccccc2c1`, for which the GI50 with NCI-H226 lung is 21.9 µM; in the assay on UACC-62 melanoma, 18 µM; in the assay on HS 578T breast, 23.5 µM; in the assay on MALME-3M melanoma it was 11.4 µM; in the assay on HCT-116 colon it was 3.51 µM; in the assay with RPMI-8226 leukemia, 7.88 µM. Further, the GI50 with SK-MEL-5 melanoma is 23 µM; in the assay with CCRF-CEM leukemia, 45.1 µM; with KM12 colon it was 29.6 µM; with RXF 393 renal it was 19 µM. The TGI with NCI-H226 lung is 65.2 µM; in the assay on UACC-62 melanoma it was 42.9 µM; in the assay with HS 578T breast it was 79.2 µM; in the assay on MALME-3M melanoma, 45.6 µM; in the assay on HCT-116 colon, 15 µM; with RPMI-8226 leukemia, above 100 µM. Further, the TGI in the assay with SK-MEL-5 melanoma was above 100 µM; in the assay on CCRF-CEM leukemia it was above 100 µM; in the assay on KM12 colon, above 100 µM; in the assay with RXF 393 renal it was 54.4 µM.
Take `CCN(CC)CCC(=O)O[C@H]1CC[C@H](CC(C)[C@H]2CC(=O)C(C)C=C(C)[C@H](OC(=O)CCN(CC)CC)C(OC)C(=O)[C@@H](C)CC(C)/C=C/C=C/C=C(C)C(OC)CC3CC[C@H](C)[C@](O)(O3)C(=O)C(=O)N3CCCCC3C(=O)O2)CC1OC` (stereo not given in full): the GI50 with NCI-H226 lung was 1.21 µM; with MALME-3M melanoma it was 0.0579 µM; with HCT-116 colon, 1.24 µM; with RPMI-8226 leukemia it was 0.00666 µM; in the assay with SK-MEL-5 melanoma, 0.0401 µM. The TGI in the assay with NCI-H226 lung is 3.68 µM and 3.34 µM; in the assay with UACC-62 melanoma, 1.99 µM; in the assay with HS 578T breast, 2.28 µM; in the assay with HCT-116 colon, 2.57 µM and 2.54 µM; in the assay on RPMI-8226 leukemia it was 5.24 µM and 2.95 µM; in the assay on SK-MEL-5 melanoma, 1.85 µM and 2.16 µM. Moreover, the TGI is > 10 µM and 1.57 µM in the assay on CCRF-CEM leukemia; > 10 µM and 2.03 µM in the assay with KM12 colon; 2.2 µM in the assay on RXF 393 renal.
As to `O=c1[nH]nc(-c2ccccc2)c2c(-c3ccccc3)onc12`, the GI50 with NCI-H226 lung was above 21 µM; with UACC-62 melanoma, 0.43 µM; in the assay with HS 578T breast, 0.255 µM; in the assay on MALME-3M melanoma, 0.751 µM; in the assay with HCT-116 colon, 0.333 µM; with RPMI-8226 leukemia it was 0.474 µM. For the same compound, the GI50 in the assay with SK-MEL-5 melanoma was 0.352 µM; in the assay on CCRF-CEM leukemia, 3.69 µM; in the assay with KM12 colon it was 0.389 µM; in the assay with RXF 393 renal, 1.19 µM. For the same compound, the TGI with NCI-H226 lung is above 100 µM; in the assay with UACC-62 melanoma, above 100 µM; in the assay with HS 578T breast, 1.37 µM; with MALME-3M melanoma, above 90 µM; in the assay on HCT-116 colon it was above 100 µM; in the assay on RPMI-8226 leukemia it was above 55.4 µM. Moreover, the TGI with CCRF-CEM leukemia was above 100 µM; with KM12 colon, above 39.6 µM; in the assay with RXF 393 renal, above 37.9 µM.
